What was measured:
osteoblastic metastases = conditions: mice injected with ET-1-secreting breast cancer cell lines; Yin et al. 2003; cited from earlier work
OPG = assay: ELISA for OPG secreted by MC3T3 osteoblast cells; type: cell-based, mouse; conditions: MC3T3 cell line
Source text: (§1) Mouse MC3T3 pre-osteoblastic cells (subclone 4) were purchased from ATCC (Manassis, Va.) and propagated in αMEM media without ascorbic acid (Invitrogen, Carlsbad, Calif.) supplemented with 10% FBS (Invitrogen). Human Mesenchymal Stem Cells (MSCs) were purchased from Cambrex (Walkersville, Md.) and propagated according in MSCGM™ media (Cambrex). To initiate differentiation of the MSC into human osteoblasts, the growth media was replaced by osteogenic differentiation medium (OGM, Cambrex).
(§2) Mouse preosteoblastic MC3T3 cells as well as primary human osteoblasts were treated with ET, from Sigma (St. Louis, Mo.), for 2, 4, and 6 hours in the absence or presence of the ETa receptor antagonist ABT-627, from Abbott Laboratories (Abbott Park, Ill.). The drug was added 1 hour prior to the addition of ET.
(§3) Mouse MC3T3 osteoblast cells were propagated as set out above, and at times indicated were harvested and spun at 250×g for 10 minutes at room temperature. The clarified supernatants were aliquoted and frozen until analyzed. 200 microliters of each sample was tested in quadruplicate by commercially available ELISA assay kits for PAI-1 (Molecular Innovations, Southfield, Mich.), OPG (Biomedica, San Diego, Calif.) and IL-6 (Ray Biotech, Norcross, Ga.). The ELISA tests were performed according to the manufacturer's instructions. […]

PAI-1 = assay: ELISA for PAI-1 secreted by MC3T3 osteoblast cells; type: cell-based, mouse; conditions: MC3T3 cell line
Source text: as §1, §2, §3

IL-6 = assay: ELISA for IL-6 secreted by MC3T3 osteoblast cells; type: cell-based, mouse; conditions: MC3T3 cell line
Source text: as §1, §2, §3

[1] = system: Mouse MC3T3 pre-osteoblastic cells; assay: Microarray analysis of gene expression in ET-treated mouse osteoblasts; type: cell-based; conditions: for # Genes Blocked by ABT-627 (of genes down-regulated by ET) / # Genes Blocked by ABT-627 (of genes induced by ET): drug added 1 hour prior to ET
Source text: as §1, §2
(§4) Total RNA was extracted from the treated cell lines and purified on RNeasy columns (Qiagen, Valencia, Calif.). Labeled cRNA was prepared according to the microarray manufacturer Affymetrix's protocol and hybridized to either mouse 430A 2.0 or human U133A 2.0 arrays (Affymetrix, Santa Clara, Calif.). Gene expression fold changes for each treatment were calculated by combining three biological replicates for each treatment using the Rosetta Resolver's Affymetrix error model software and building a ratio from the resulting values. All genes regulated ≧1.5-fold with a p-value of ≦0.01 were retained for further analysis. Conventional two-dimensional clustering was then performed by using the agglomerative hierarchical clustering algorithm. The Euclidean distance was used as the similarity metric.

[2] = system: metastatic hormone-refractory prostate cancer; conditions: patients with metastatic hormone-refractory prostate cancer; Nelson et al. 2003; cited from earlier work
[3] = system: primary human osteoblasts; assay: Microarray analysis of gene expression in ET-treated primary human osteoblasts; type: cell-based; conditions: ET-1 treatment
Source text: as §1, §2
as §4, with “All genes regulated ≧1.5-fold with a p-value of ≦0.01 were retained for further analysis. Conventional two-dimensional clustering was then performed by using the agglomerative hierarchical clustering algorithm. The Euclidean distance was used as the similarity metric.” left out

[4] = endothelin in the presence of ABT-627
[5] = mouse osteoblasts, time point 4 hr
[6] = mouse osteoblasts, time point 6 hr

Structure (SMILES): CCCCN(CCCC)C(=O)CN1C[C@H](c2ccc3c(c2)OCO3)[C@@H](C(=O)O)[C@@H]1c1ccc(OC)cc1 [ABT-627, (2R,3R,4S)-(+)-2-(4-Methoxyphenyl)-4-(1,3-benzodioxol-5-yl)-1-(N,N-di(n-butyl)aminocarbonylmethyl)-pyrrolidine-3-carboxylic acid]
- Metastatic growth (osteoblastic metastases): suppressed the metastatic growth
- Endothelin-induced expression of OPG (ELISA) (OPG; [4]): substantial suppression
- Endothelin-induced expression of PAI-1 (ELISA) (PAI-1; [4]): substantial suppression
- Endothelin-induced expression of IL-6 (ELISA) (IL-6; [4]): substantial suppression
- Induction by ET-1 of osteoblastic maturation genes (OPG, COX-2, Dmp1, Tgfbi, CTGF, Klf10) ([1]; osteoblastic cells, pre-treatment with ABT-627): blocked
- Induction by ET of apoptosis suppression genes (Nur77, Flt1, NFATc1) ([1]; osteoblastic cells, with ABT-627): the induction was blocked
- Genes Blocked by ABT-627 as percent of genes induced by ET ([1]; time point 2 hr): (96%)
- # Genes Blocked by ABT-627 (of genes down-regulated by ET) ([1]; time point 2 hr): 403
- # Genes Blocked by ABT-627 (of genes induced by ET) ([1]; time point 2 hr): 581
- Genes Blocked by ABT-627 as percent of genes induced by ET ([1]; time point 4 hr): (83%)
- # Genes Blocked by ABT-627 (of genes down-regulated by ET) ([1]; time point 4 hr): 262
- # Genes Blocked by ABT-627 (of genes induced by ET) ([1]; time point 4 hr): 390
- Genes Blocked by ABT-627 as percent of genes induced by ET ([1]; time point 6 hr): (97%)
- # Genes Blocked by ABT-627 (of genes down-regulated by ET) ([1]; time point 6 hr): 93
- # Genes Blocked by ABT-627 (of genes induced by ET) ([1]; time point 6 hr): 189
- Effect of pre-treatment on ET gene induction events ([1]; two-dimensional hierarchical clustering, all three timepoints): abrogated almost all of these gene induction events
- Gene expression changes caused by the antagonist alone ([1]; without ET): very few gene expression changes
- Time to disease progression [2]: extended time to disease progression

Structure (SMILES): CC[C@H](C)[C@H](NC(=O)[C@H](CC(=O)O)NC(=O)[C@H](CC(C)C)NC(=O)[C@H](Cc1c[nH]cn1)NC(=O)[C@@H]1CSSC[C@H](N)C(=O)N[C@@H](CO)C(=O)N[C@H]2CSSC[C@H](NC(=O)[C@H](CCC(=O)O)NC(=O)[C@H](CCCCN)NC(=O)[C@H](CC(=O)O)NC(=O)[C@H](CCSC)NC(=O)[C@H](CC(C)C)NC(=O)[C@H](CO)NC(=O)[C@H](CO)NC2=O)C(=O)N[C@@H](C(C)C)C(=O)N[C@@H](Cc2ccc(O)cc2)C(=O)N[C@@H](Cc2ccccc2)C(=O)N1)C(=O)N[C@H](C(=O)N[C@@H](Cc1c[nH]c2ccccc12)C(=O)O)[C@@H](C)CC [ET]
- Expression of genes coding for secreted proteins (PAI-1, uPA, TGFbeta2, IL-6, IL-8) [3]: strongly upregulated
- Expression of OPG (ELISA) (OPG; treatment with endothelin): strongly induced
- Expression of PAI-1 (ELISA) (PAI-1; treatment with endothelin): strongly induced
- Expression of IL-6 (ELISA) (IL-6; treatment with endothelin): strongly induced
- Expression of genes coding for secreted proteins (PAI-1, uPA, TGFbeta2, IL-6, IL-8) ([1]; mouse osteoblasts, ET-1 treatment): strongly upregulated
- # Genes Down-regulated by ET ([1]; mouse osteoblasts, time point 2 hr): 423
- # Genes Induced by ET ([1]; mouse osteoblasts, time point 2 hr, regulated >=1.5-fold, p<=0.01): 608
- # Genes Down-regulated by ET [1, 5]: 295
- # Genes Induced by ET [1, 5]: 472
- # Genes Down-regulated by ET [1, 6]: 95
- # Genes Induced by ET [1, 6]: 194
- Expression of apoptosis suppression genes (Nur77, Flt1, NFATc1) ([1]; osteoblastic cells, ET treatment): induced
